{
  "source": "patent US10111822B2",
  "about": "“External dermal composition for anti-ageing and method for producing the same” (Hayashibara Co., Ltd., priority 2012, dated 2018)",
  "type_in_all_cases": "cell-based, human",
  "key": {"cornified envelope (CE)": {"system": "cornified envelope (CE)", "test": "Production of cornified envelope (CE) in NHEK cells", "conditions": "5 days, control 0.63 ± 0.07", "description": "The following experiment was conducted to examine the effect of ascorbic acid 2-glucoside on the production of CE in a keratinous layer. As a model for typical normal human epidermal cells, normal human epidermal keratinocytes from neonatal foreskin, commercialized by Kurabo Industries Ltd., Osaka, Japan, and abbreviated as “NHEK cells”, hereinafter, were suspended in EpiLife medium (pH 7.4), commercialized by Invitrogen Corporation, Calif., USA, and called “EpiLife medium”, hereinafter, inoculated to 12-well microplates at a cell density of 1×10^5 cells/well, and cultured under the conditions of 37° C. and 5% v/v CO2 overnight. Thereafter, “AA2G”, a product name of a particulate composition containing anhydrous crystalline ascorbic acid 2-glucoside, commercialized by Hayashibara Co., Ltd., Okayama, Japan, was added to each well to give a final concentration of 0.5 or 1 mM, or, as a positive control, CaCl2 was added to each well to give a final concentration of 1 mM; and the cells in each well were cultured at 37° C. for five days while replacing the medium in each well with a fresh preparation of EpiLife medium having the above-identified concentration of ascorbic acid 2-glucoside or CaCl2. Assay for intracellular CE content was carried out in accordance with Tatsuya Hasegawa et al., “Lipids”, Vol. 46, pp. 529 to 535, 2011. After completion of the culture, the culture supernatant in each well was immediately removed, followed by detaching and extracting the cells adhered to the wall of each well by means of pipetting with phosphate buffered saline (PBS, pH 7.4) containing 2% w/v sodium dodecyl sulfate (SDS), and collecting insoluble fractions by centrifugation at 15,000 rpm for 10 min. […] The measured values were regarded as CE production levels. […]"}, "Dickkopf-1 (DKK1)": {"system": "Dickkopf-1 (DKK1)", "test": "Production of DKK1 in NHDF cells (ELISA)", "conditions": "for DKK1 Production level, First day: n=3, control 0.115 ± 0.012; for DKK1 Production level, Third day: n=3, control 0.217 ± 0.021", "description": "NHDF Cells, which had been diluted with a culture medium to give a cell density of 1×10^4 cells/well, were inoculated to 96-well plates. At 24 hours after the inoculation, the supernatant in each well of the plates was removed, followed by adding ascorbic acid 2-glucoside to each well of the plates to give a final concentration of 0.5, 1, 2, 4, or 8 mM. As a control, a cell culture system with no addition of ascorbic acid 2-glucoside was provided. At the first and third days of culturing after the addition of ascorbic acid 2-glucoside, the supernatant in each well of the plates was collected and quantified (n=3) for DKK1 with “RayBio”, a product name of an ELISA for DKK1 assay, commercialized by RayBiotech Inc., Georgia, USA. Statistical analysis of the data was performed by t-test (see “Kiso-Tokeigaku (Basic Statistics) III Statistics of Natural Science”, page 187, 2008, edited by University of Tokyo Press)."}, "occludin": {"system": "occludin", "test": "TJ-related protein occludin in NHEK cells (Western)", "conditions": "3 days, CaCl2 positive control = 100%, no addition 63%", "description": "The following experiment was conducted to examine the effect of ascorbic acid 2-glucoside on the production of TJ-related proteins that constitute cell-cell adhesion structures by focusing on occludin and ZO-1 that are focused on as TJ-related proteins known to exist in a granular layer of epidermis: As a model for typical normal human epidermal cells, NHEK cells were suspended in EpiLife medium (pH 7.4); inoculated to 12-well microplates at a cell density of 1×10^5 cells/well; cultured overnight under the conditions of 37° C. and 5% v/v CO2; and further cultured for three days under the conditions of 37° C. and 5% v/v CO2 after adding either CaCl2 as a positive control to each well to give a final concentration of 0.5 mM, or “AA2G”, a product name of a particulate composition containing anhydrous crystalline ascorbic acid 2-glucoside, commercialized by Hayashibara Co., Ltd., Okayama, Japan, to give a final concentration of 0.5 or 1 mM. […] A sample of 20 μg protein for each lane per each cell extract in respective wells was applied to sodium dodecyl sulfate polyacrylamide gel electrophoresis (SDS-PAGE) with 10% w/v SDS containing DTT, followed by assaying the concentration of occludin or ZO-1 in each cell extract with “Luminate Western HRP Substrates”, a product name of a premixed, ready-to-use chemiluminescent detection reagent using an internal standard “α-Tubulin”, commercialized by Merck KGaA, Darmstadt, Germany, wherein there were used “F-11”, a product name of an anti-occludin mouse monoclonal antibody, commercialized by Santa Cruz Biotechnology, Inc., Texas, USA, or “ZO1-1A12”, a product name of a ZO-1 mouse monoclonal antibody, commercialized by Invitrogen Corporation, Calif., USA, was used as a first antibody; and “PO447”, a product name of a horseradish peroxidase (HRPO) labeled anti-mouse IgG, commercialized by DAKO Japan Inc., Tokyo, Japan, or “PO448”, a product name of an HRPO-labeled anti-rabbit IgG, commercialized by DAKO Japan Inc., Tokyo, Japan, as a secondary antibody. […]"}},
  "data": [
    {"molecule": "O=C1O[C@H]([C@@H](O)CO)C(O)=C1O[C@H]1O[C@H](CO)[C@@H](O)[C@H](O)[C@H]1O", "note": "[ascorbic acid 2-glucoside, 2-O-α-D-glucosyl-L-ascorbic acid]", "values": [
      {"measurement": "OD310nm Value (CE Production level)", "setting": "cornified envelope (CE); 0.5 mM", "result": "0.78 ± 0.05"},
      {"measurement": "OD310nm Value (CE Production level)", "setting": "cornified envelope (CE); 1 mM", "result": "1.04 ± 0.11"},
      {"measurement": "DKK1 Production level, First day", "setting": "Dickkopf-1 (DKK1); 0.5 mmol/L", "result": "0.117 ± 0.018", "unit": "ng/mL"},
      {"measurement": "DKK1 Production level, Third day", "setting": "Dickkopf-1 (DKK1); 0.5 mmol/L", "result": "0.317 ± 0.035", "unit": "ng/mL"},
      {"measurement": "DKK1 Production level, First day", "setting": "Dickkopf-1 (DKK1); 1 mmol/L", "result": "0.129 ± 0.017", "unit": "ng/mL"},
      {"measurement": "DKK1 Production level, Third day", "setting": "Dickkopf-1 (DKK1); 1 mmol/L", "result": "0.315 ± 0.042", "unit": "ng/mL"},
      {"measurement": "DKK1 Production level, First day", "setting": "Dickkopf-1 (DKK1); 2 mmol/L", "result": "0.149 ± 0.037", "unit": "ng/mL"},
      {"measurement": "DKK1 Production level, Third day", "setting": "Dickkopf-1 (DKK1); 2 mmol/L", "result": "0.339 ± 0.030", "unit": "ng/mL"},
      {"measurement": "DKK1 Production level, First day", "setting": "Dickkopf-1 (DKK1); 4 mmol/L", "result": "0.146 ± 0.016", "unit": "ng/mL"},
      {"measurement": "DKK1 Production level, Third day", "setting": "Dickkopf-1 (DKK1); 4 mmol/L", "result": "0.392 ± 0.014", "unit": "ng/mL"},
      {"measurement": "DKK1 Production level, First day", "setting": "Dickkopf-1 (DKK1); 8 mmol/L", "result": "0.179 ± 0.032", "unit": "ng/mL"},
      {"measurement": "DKK1 Production level, Third day", "setting": "Dickkopf-1 (DKK1); 8 mmol/L", "result": "0.413 ± 0.033", "unit": "ng/mL"},
      {"measurement": "Occludin concentration in cell extract", "setting": "occludin; 0.5 mM", "result": 78, "unit": "%"},
      {"measurement": "Occludin concentration in cell extract", "setting": "occludin; 1 mM", "result": 85, "unit": "%"}
    ]}
  ]
}
